Patent US9201014B2, “Development of photostable near-IR cyanine dyes for in vivo imaging” (National University of Singapore, priority 2010, dated 2015)

Key:
[1] = Characterization of the CyNAMLA library (absorbance maximum wavelengths); format: physicochemical; conditions: absorbance maximum wavelength of CyNAMLA library compounds
Description: The amine group of 21 was protected using di-tert-butyl dicarbonate then derivatized with 80 different primary amines (for structures, see FIGS. 14A-14D). After acetylation of the newly-introduced amine, the compounds were treated with a solution of TFA-DCM (1:9) to remove the tert-butylcarbamate protecting group. The deprotected amine was then coupled to lipoic acid to yield CyNAMLA derivatives with an average purity of 90% (for HPLC-determined purities, see Table 6).

[2] = Primary screen of SERS intensities of CyNAMLA-functionalized AuNPs (compact Raman scanner); format: physicochemical; conditions: for Raman intensity: SERS spectra of CyNAMLA-functionalized AuNPs, excitation at 785 nm, laser power 60 mW
Description: FIG. 15 is a graph of the comparative surface-enhanced Raman spectroscopy (SERS) intensities of members of the CyNAMLA library measured with an excitation wavelength of 785 nm and a laser power of 60 mW in a compact Raman scanner.
The CyNAMLA compounds were adsorbed onto AuNPs having a diameter of approximately 60 nm, and the SERS properties of the resulting CyNAMLA-functionalized AuNPs were evaluated using a compact Raman scanner. Among metal nanoparticles, AuNPs are particularly suitable for in vivo applications due to their low toxicity, adaptability to bioconjugation, and reproducible signal intensity and quantification.

λabs (max) [1] | Raman intensity [2] | SERS intensity compared to DTTC, primary screen ([2]; on AuNPs, 785 nm, 60 mW) | Compound
806 nm | 2271 |  | CCCN1/C(=C/C=C2\CCCC(/C=C/C3=[N+](CCCNC(=O)CCCCC4CCSS4)c4ccccc4C3(C)C)=C2N(Cc2ccc3c(c2)OCO3)C(C)=O)C(C)(C)c2ccccc21.O=C([O-])C(F)(F)F (centres unmarked) [CyNAMLA-49]
805 nm | 1125 |  | CCCCCCCCCCCCCN(C(C)=O)C1=C(/C=C/C2=[N+](CCCNC(=O)CCCCC3CCSS3)c3ccccc3C2(C)C)CCC/C1=C\C=C1\N(CCC)c2ccccc2C1(C)C.O=C([O-])C(F)(F)F (centres unmarked) [CyNAMLA-55]
803 nm | 2102 |  | CCCN1/C(=C/C=C2\CCCC(/C=C/C3=[N+](CCCNC(=O)CCCCC4CCSS4)c4ccccc4C3(C)C)=C2N(Cc2ccccc2C)C(C)=O)C(C)(C)c2ccccc21.O=C([O-])C(F)(F)F (centres unmarked) [CyNAMLA-101]
806 nm | 6424 |  | CCCN1/C(=C/C=C2\CCCC(/C=C/C3=[N+](CCCNC(=O)CCCCC4CCSS4)c4ccccc4C3(C)C)=C2N(Cc2ccccc2OCC)C(C)=O)C(C)(C)c2ccccc21.O=C([O-])C(F)(F)F (centres unmarked) [CyNAMLA-103]
805 nm | 2397 |  | CCCN1/C(=C/C=C2\CCCC(/C=C/C3=[N+](CCCNC(=O)CCCCC4CCSS4)c4ccccc4C3(C)C)=C2N(C(C)=O)C2CCN(Cc3ccccc3)CC2)C(C)(C)c2ccccc21.O=C([O-])C(F)(F)F (centres unmarked) [CyNAMLA-107]
804 nm | 2201 |  | CCCN1/C(=C/C=C2\CCCC(/C=C/C3=[N+](CCCNC(=O)CCCCC4CCSS4)c4ccccc4C3(C)C)=C2N(Cc2cccc(OC)c2OC)C(C)=O)C(C)(C)c2ccccc21.O=C([O-])C(F)(F)F (centres unmarked) [CyNAMLA-124]
803 nm | 4777 |  | CCCN1/C(=C/C=C2\CCCC(/C=C/C3=[N+](CCCNC(=O)CCCCC4CCSS4)c4ccccc4C3(C)C)=C2N(C(C)=O)C2CCCCC2)C(C)(C)c2ccccc21.O=C([O-])C(F)(F)F (centres unmarked) [CyNAMLA-164]
804 nm | 8236 |  | CCCN1/C(=C/C=C2\CCCC(/C=C/C3=[N+](CCCNC(=O)CCCCC4CCSS4)c4ccccc4C3(C)C)=C2N(C(C)=O)C2CCCC2)C(C)(C)c2ccccc21.O=C([O-])C(F)(F)F (centres unmarked) [CyNAMLA-180]
804 nm | 2109 |  | CCCN1/C(=C/C=C2\CCCC(/C=C/C3=[N+](CCCNC(=O)CCCCC4CCSS4)c4ccccc4C3(C)C)=C2N(Cc2ccc(OC)cc2OC)C(C)=O)C(C)(C)c2ccccc21.O=C([O-])C(F)(F)F (centres unmarked) [CyNAMLA-181]
803 nm | 24133 |  | CCCN1/C(=C/C=C2\CCCC(/C=C/C3=[N+](CCCNC(=O)CCCCC4CCSS4)c4ccccc4C3(C)C)=C2N(CCc2cccc(OC)c2OC)C(C)=O)C(C)(C)c2ccccc21.O=C([O-])C(F)(F)F (centres unmarked) [CyNAMLA-184]
805 nm | 4603 |  | CCCC(C)N(C(C)=O)C1=C(/C=C/C2=[N+](CCCNC(=O)CCCCC3CCSS3)c3ccccc3C2(C)C)CCC/C1=C\C=C1\N(CCC)c2ccccc2C1(C)C.O=C([O-])C(F)(F)F (centres unmarked) [CyNAMLA-185]
804 nm | 1922 |  | CCCN1/C(=C/C=C2\CCCC(/C=C/C3=[N+](CCCNC(=O)CCCCC4CCSS4)c4ccccc4C3(C)C)=C2N(Cc2ccc(F)cc2)C(C)=O)C(C)(C)c2ccccc21.O=C([O-])C(F)(F)F (centres unmarked) [CyNAMLA-218]
804 nm | 4341 |  | CCCCC(CC)CN(C(C)=O)C1=C(/C=C/C2=[N+](CCCNC(=O)CCCCC3CCSS3)c3ccccc3C2(C)C)CCC/C1=C\C=C1\N(CCC)c2ccccc2C1(C)C.O=C([O-])C(F)(F)F (centres unmarked) [CyNAMLA-230]
805 nm | 27810 | exceeded the signal of DTTC | CCCN1/C(=C/C=C2\CCCC(/C=C/C3=[N+](CCCNC(=O)CCCCC4CCSS4)c4ccccc4C3(C)C)=C2N(Cc2cc(OC)cc(OC)c2)C(C)=O)C(C)(C)c2ccccc21.O=C([O-])C(F)(F)F (centres unmarked) [CyNAMLA-262]
806 nm | 3013 |  | CCCN1/C(=C/C=C2\CCCC(/C=C/C3=[N+](CCCNC(=O)CCCCC4CCSS4)c4ccccc4C3(C)C)=C2N(CCc2ccc(OC)c(OC)c2)C(C)=O)C(C)(C)c2ccccc21.O=C([O-])C(F)(F)F (centres unmarked) [CyNAMLA-266]
805 nm | 1986 |  | CCCN1/C(=C/C=C2\CCCC(/C=C/C3=[N+](CCCNC(=O)CCCCC4CCSS4)c4ccccc4C3(C)C)=C2N(CCN2CCCCC2)C(C)=O)C(C)(C)c2ccccc21.O=C([O-])C(F)(F)F (centres unmarked) [CyNAMLA-272]
806 nm | 6417 |  | CCCN1/C(=C/C=C2\CCCC(/C=C/C3=[N+](CCCNC(=O)CCCCC4CCSS4)c4ccccc4C3(C)C)=C2N(CCCOC(C)C)C(C)=O)C(C)(C)c2ccccc21.O=C([O-])C(F)(F)F (centres unmarked) [CyNAMLA-274]
804 nm | 1408 |  | CCCN1/C(=C/C=C2\CCCC(/C=C/C3=[N+](CCCNC(=O)CCCCC4CCSS4)c4ccccc4C3(C)C)=C2N(C(C)=O)C(C)CCc2ccccc2)C(C)(C)c2ccccc21.O=C([O-])C(F)(F)F (centres unmarked) [CyNAMLA-275]
804 nm | 2046 |  | CCCCCCCN(C(C)=O)C1=C(/C=C/C2=[N+](CCCNC(=O)CCCCC3CCSS3)c3ccccc3C2(C)C)CCC/C1=C\C=C1\N(CCC)c2ccccc2C1(C)C.O=C([O-])C(F)(F)F (centres unmarked) [CyNAMLA-277]
805 nm | 2850 |  | CCCN1/C(=C/C=C2\CCCC(/C=C/C3=[N+](CCCNC(=O)CCCCC4CCSS4)c4ccccc4C3(C)C)=C2N(Cc2ccc(OC)c(OC)c2)C(C)=O)C(C)(C)c2ccccc21.O=C([O-])C(F)(F)F (centres unmarked) [CyNAMLA-319]
805 nm | 2548 |  | CCCN1/C(=C/C=C2\CCCC(/C=C/C3=[N+](CCCNC(=O)CCCCC4CCSS4)c4ccccc4C3(C)C)=C2N(Cc2c(OC)cc(OC)cc2OC)C(C)=O)C(C)(C)c2ccccc21.O=C([O-])C(F)(F)F (centres unmarked) [CyNAMLA-336]
804 nm | 1071 |  | CCCN1/C(=C/C=C2\CCCC(/C=C/C3=[N+](CCCNC(=O)CCCCC4CCSS4)c4ccccc4C3(C)C)=C2N(Cc2cccc(Br)c2)C(C)=O)C(C)(C)c2ccccc21.O=C([O-])C(F)(F)F (centres unmarked) [CyNAMLA-341]
806 nm | 2333 |  | CCCN1/C(=C/C=C2\CCCC(/C=C/C3=[N+](CCCNC(=O)CCCCC4CCSS4)c4ccccc4C3(C)C)=C2N(Cc2cc(OC)c(OC)c(OC)c2)C(C)=O)C(C)(C)c2ccccc21.O=C([O-])C(F)(F)F (centres unmarked) [CyNAMLA-356]
804 nm | 1121 |  | CCCN1/C(=C/C=C2\CCCC(/C=C/C3=[N+](CCCNC(=O)CCCCC4CCSS4)c4ccccc4C3(C)C)=C2N(Cc2ccc(OC)cc2OC)C(C)=O)C(C)(C)c2ccccc21.O=C([O-])C(F)(F)F (centres unmarked) [CyNAMLA-358]
804 nm | 2487 |  | CCCCN(C(C)=O)C1=C(/C=C/C2=[N+](CCCNC(=O)CCCCC3CCSS3)c3ccccc3C2(C)C)CCC/C1=C\C=C1\N(CCC)c2ccccc2C1(C)C.O=C([O-])C(F)(F)F (centres unmarked) [CyNAMLA-373]
804 nm | 7947 |  | CCCN1/C(=C/C=C2\CCCC(/C=C/C3=[N+](CCCNC(=O)CCCCC4CCSS4)c4ccccc4C3(C)C)=C2N(CC2CCCCC2)C(C)=O)C(C)(C)c2ccccc21.O=C([O-])C(F)(F)F (centres unmarked) [CyNAMLA-382]
